According to patent publication US20210322395A1, “METHOD TO PREVENT AND TREAT HEARING LOSS BY CALCIUM CHANNEL BLOCKERS, ANGIOTENSIN CONVERTING ENZYME INHIBITORS, AND ANGIOTENSIN RECEPTOR BLOCKERS” (priority 2018, published 2021):

How the values were obtained:
hearing loss [1] = assay: Treatment of hearing loss in a patient, one ear treated, other ear untreated; assay type: in vivo, human
Description: A patient is diagnosed with hearing loss of the same magnitude in both ears. A composition comprising the calcium channel blocker nifedipine is directly applied to the external ear space of one ear while the other ear is left untreated. […] A patient is diagnosed with hearing loss of the same magnitude in both ears. A composition comprising the ACE inhibitor enalapril is directly applied to the external ear space of one ear while the other ear is left untreated. […] A patient is diagnosed with hearing loss of the same magnitude in both ears. A composition comprising the angiotensin receptor blocker losartan is directly applied to the external ear space of one ear while the other ear is left untreated. […] A patient is diagnosed with hearing loss of the same magnitude in both ears. A composition comprising the calcium channel blocker nifedipine is administered by injection into the middle ear space of one ear while the other ear is left untreated. […] A patient is diagnosed with hearing loss of the same magnitude in both ears. A composition comprising the ACE inhibitor enalapril is administered by injection into the middle ear space of one ear while the other ear is left untreated. […] A patient is diagnosed with hearing loss of the same magnitude in both ears. A composition comprising the angiotensin receptor blocker losartan is administered by injection into the middle ear space of one ear while the other ear is left untreated. […] A patient is diagnosed with hearing loss of the same magnitude in both ears. A composition comprising the calcium channel blocker nifedipine is administered by injection into the inner ear space of one ear while the other ear is left untreated. […] A patient is diagnosed with hearing loss of the same magnitude in both ears. A composition comprising the ACE inhibitor enalapril is administered by injection into the inner ear space of one ear while the other ear is left untreated. […] A patient is diagnosed with hearing loss of the same magnitude in both ears. A composition comprising the angiotensin receptor blocker losartan is administered by injection into the inner ear space of one ear while the other ear is left untreated.

hearing loss [2] = assay: Prevention of recurrence of hearing loss in a successfully treated patient, one ear treated, other ear untreated; assay type: in vivo, human; details: patient after successful treatment, untreated side again exhibits symptoms
Description: A composition comprising the calcium channel blocker nifedipine is directly applied to the external ear space of one ear while the other ear is left untreated. […] A composition comprising the ACE inhibitor enalapril is directly applied to the external ear space of one ear while the other ear is left untreated. […] A composition comprising the angiotensin receptor blocker losartan is directly applied to the external ear space of one ear while the other ear is left untreated. […] A composition comprising the calcium channel blocker nifedipine is administered by injection into the middle ear space of one ear while the other ear is left untreated. […] A composition comprising the ACE inhibitor enalapril is administered by injection into the middle ear space of one ear while the other ear is left untreated. […] A composition comprising the angiotensin receptor blocker losartan is administered by injection into the middle ear space of one ear while the other ear is left untreated. […] A composition comprising the calcium channel blocker nifedipine is administered by injection into the inner ear space of one ear while the other ear is left untreated. […] A composition comprising the ACE inhibitor enalapril is administered by injection into the inner ear space of one ear while the other ear is left untreated. […] A composition comprising the angiotensin receptor blocker losartan is administered by injection into the inner ear space of one ear while the other ear is left untreated.

[3] = composition directly applied to the external ear space of one ear
[4] = composition injected into the inner ear space of one ear
[5] = composition injected into the middle ear space of one ear

SMILES	hearing loss of treated ear compared to untreated ear (hearing loss [1]; [3])	hearing loss of treated ear compared to untreated ear (hearing loss [1]; [4])	hearing loss of treated ear compared to untreated ear (hearing loss [1]; [5])	level of hearing of treated ear after a period of time (recurrence of hearing loss) (hearing loss [2]; [3])	level of hearing of treated ear after a period of time (recurrence of hearing loss) (hearing loss [2]; [4])	level of hearing of treated ear after a period of time (recurrence of hearing loss) (hearing loss [2]; [5])
CCOC(=O)[C@H](CCc1ccccc1)N[C@@H](C)C(=O)N1CCC[C@H]1C(=O)O [enalapril]	reduced hearing loss	reduced hearing loss	reduced hearing loss	maintained the level of hearing	maintained the level of hearing	maintained the level of hearing
CCCCc1nc(Cl)c(CO)n1Cc1ccc(-c2ccccc2-c2nn[nH]n2)cc1 [losartan]	reduced hearing loss	reduced hearing loss	reduced hearing loss	maintained the level of hearing	maintained the level of hearing	maintained the level of hearing
